According to ChEMBL document CHEMBL4715805, “Structure-Activity Relationship for Sulfonamide Inhibition of Helicobacter pylori α-Carbonic Anhydrase” (J Med Chem, 2016):

Assay: Inhibition of Helicobacter pylori alpha-carbonic anhydrase expressed in Escherichia coli assessed as inhibition constant preincubated for 15 mins prior to testing by phenol red-based stopped-flow CO2 hydration assay

## Cn1nc(S(N)(=O)=O)s/c1=N/S(=O)(=O)c1ccc(C(C)(C)C)cc1
  Ki: 8.2 nM
